According to PMC3133741 (Journal of medicinal chemistry, 2011):
Bridge positions count the residues as written; N and C are the ends. Square brackets hold non-standard residues; d marks the D form. Peptide text beside a SMILES is read from it. * marks the point of attachment. d(aThr) = C[C@@H](O)[C@@H](N)C(=O)O; Dhb = C/C=C(\N)C(=O)O; Propionyl = CCC(=O)*

Columns and labels:
[1] = target: TRPV1 (Mus musculus, UniProt Q704Y3); test: Long-term TRPV1 antagonism test in mouse DRG neurons; type: cell-based; details: 125 μM, 5 min incubation
TRPV1 (Mus musculus, UniProt Q704Y3), sequence (Q704Y3 whole entry): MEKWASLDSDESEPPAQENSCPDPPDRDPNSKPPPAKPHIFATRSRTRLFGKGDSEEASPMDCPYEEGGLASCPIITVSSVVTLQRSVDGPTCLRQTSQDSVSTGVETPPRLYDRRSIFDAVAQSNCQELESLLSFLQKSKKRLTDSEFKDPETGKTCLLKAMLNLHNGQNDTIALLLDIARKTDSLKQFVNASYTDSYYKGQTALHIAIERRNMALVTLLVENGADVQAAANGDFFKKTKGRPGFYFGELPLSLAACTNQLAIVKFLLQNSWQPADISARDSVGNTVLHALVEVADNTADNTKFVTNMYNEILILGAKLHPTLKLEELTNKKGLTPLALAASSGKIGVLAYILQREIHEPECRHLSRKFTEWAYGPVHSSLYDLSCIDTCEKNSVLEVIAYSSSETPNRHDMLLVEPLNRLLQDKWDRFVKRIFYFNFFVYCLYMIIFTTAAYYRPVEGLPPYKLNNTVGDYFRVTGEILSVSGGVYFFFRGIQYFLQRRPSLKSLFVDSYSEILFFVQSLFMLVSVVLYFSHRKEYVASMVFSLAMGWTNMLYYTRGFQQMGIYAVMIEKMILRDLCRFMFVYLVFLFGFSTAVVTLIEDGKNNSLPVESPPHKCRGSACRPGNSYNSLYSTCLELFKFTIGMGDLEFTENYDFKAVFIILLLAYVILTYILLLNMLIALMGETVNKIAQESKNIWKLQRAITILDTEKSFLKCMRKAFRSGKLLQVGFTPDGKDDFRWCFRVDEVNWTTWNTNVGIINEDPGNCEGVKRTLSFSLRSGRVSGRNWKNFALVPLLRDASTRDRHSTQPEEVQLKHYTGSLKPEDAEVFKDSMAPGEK

[2] = tested on: mouse DRG neurons; test: Fluorometric calcium flux assay in mouse DRG primary cell culture; type: cell-based; details: 125 μM final concentration; 25 mM KCl 5 min after application, then capsaicin
[3] = target: T1, TRPV1 (Homo sapiens, UniProt Q8NER1); test: TRPV1 antagonism, structure-activity comparison; type: cell-based
T1 sequence (Q8NER1 whole entry): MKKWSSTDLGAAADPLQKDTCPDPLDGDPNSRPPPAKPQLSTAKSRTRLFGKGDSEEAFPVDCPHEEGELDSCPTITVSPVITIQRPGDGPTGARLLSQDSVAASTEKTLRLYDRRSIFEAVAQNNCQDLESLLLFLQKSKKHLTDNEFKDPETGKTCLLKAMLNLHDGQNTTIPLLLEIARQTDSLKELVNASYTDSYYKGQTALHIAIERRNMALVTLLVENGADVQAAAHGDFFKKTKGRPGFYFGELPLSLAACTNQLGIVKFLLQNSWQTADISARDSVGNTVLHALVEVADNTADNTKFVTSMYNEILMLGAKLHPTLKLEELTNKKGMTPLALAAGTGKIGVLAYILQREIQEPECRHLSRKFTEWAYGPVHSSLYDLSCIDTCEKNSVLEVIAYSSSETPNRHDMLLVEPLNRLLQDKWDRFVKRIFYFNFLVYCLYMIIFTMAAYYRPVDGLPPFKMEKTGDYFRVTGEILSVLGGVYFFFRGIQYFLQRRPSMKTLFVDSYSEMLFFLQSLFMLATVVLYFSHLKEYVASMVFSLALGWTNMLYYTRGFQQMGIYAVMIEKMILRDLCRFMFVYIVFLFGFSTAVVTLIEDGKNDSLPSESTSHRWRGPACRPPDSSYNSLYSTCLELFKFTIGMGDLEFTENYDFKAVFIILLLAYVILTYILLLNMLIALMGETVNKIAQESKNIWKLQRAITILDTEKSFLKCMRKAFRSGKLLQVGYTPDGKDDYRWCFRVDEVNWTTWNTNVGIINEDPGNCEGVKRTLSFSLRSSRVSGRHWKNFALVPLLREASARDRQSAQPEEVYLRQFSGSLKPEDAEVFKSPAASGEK

[4] = target: human wild type TRPV1 (Homo sapiens, UniProt Q8NER1); test: Calcium flux assay in HEK-293 cells transfected with wild-type human TRPV1; type: cell-based; details: for duration of abolished TRPV1 activity after removal of drug: mouse and human TRPV1 channels
human wild type TRPV1, sequence (Q8NER1 whole entry): as above

[5] = target: T1, TRPV1; test: Calcium flux assay in BEAS-2B cells stably overexpressing human TRPV1; type: cell-based; details: capsaicin 2.5 μM
[6] = tested on: mutant human TRPV1 variants; test: Calcium flux assay in HEK-293 cells, three further; details: 375 μM, pre-incubated (Figure 3)
[7] = target: human TRPV1 F660A mutant (Homo sapiens, UniProt Q8NER1, F660A); test: Calcium flux assay in HEK-293 cells, human TRPV1 F660A mutant; details: 375 μM, pre-incubated (Figure 3)
human TRPV1 F660A mutant, sequence (Q8NER1 whole entry F660A): as the sequence (Q8NER1 whole entry) above, with F660A counted along it

[8] = target: human TRPV1 C578A mutant (Homo sapiens, UniProt Q8NER1, C578A); test: Calcium flux assay in HEK-293 cells, human TRPV1 C578A mutant; details: 375 μM, pre-incubated (Figure 3)
human TRPV1 C578A mutant, sequence (Q8NER1 whole entry C578A): as the sequence (Q8NER1 whole entry) above, with C578A counted along it

[9] = target: human TRPV1 C621A mutant (Homo sapiens, UniProt Q8NER1, C621A); test: Calcium flux assay in HEK-293 cells, human TRPV1 C621A mutant; details: 375 μM, pre-incubated (Figure 3)
human TRPV1 C621A mutant, sequence (Q8NER1 whole entry C621A): as the sequence (Q8NER1 whole entry) above, with C621A counted along it

For C/C=C(\NC(=O)[C@H](C)NC(=O)[C@@H](NC(=O)[C@H](NC(=O)[C@H](Cc1ccccc1)NC(=O)[C@@H](CC(C)C)NC(=O)[C@@H](Cc1ccccc1)NC(C)=O)[C@@H](C)O)C(C)C)C(=O)O [Compound 4, Nobilamide A] (Ac-[dF][dL]F[d(aThr)]VA[Dhb]-OH), the “recovery of capsaicin response” value ([1]; three-hour recovery period) was “recovery was observed after three hours”, the “capsaicin response after incubation with compound” value ([1]; capsaicin 100 or 200 nM) was “initially abolished” and the “response to capsaicin after application of pure compound” value [2] was “complete loss of response to capsaicin”. The “inhibitory activity (in words)” value [3] was “exhibited inhibitory activity”.
In the case of C/C=C1\NC(=O)[C@H](C)NC(=O)[C@H](C(C)C)NC(=O)[C@H](NC(=O)[C@H](Cc2ccccc2)NC(=O)[C@@H](CC(C)C)NC(=O)[C@@H](Cc2ccccc2)NC(=O)CC)[C@@H](C)OC1=O [Compound 1, A-3302-B] (Propionyl-[dF][dL]F[d(aThr)]VA[Dhb]; ester 4-C), the “inhibitory activity (in words)” value [3] is reported as “exhibited inhibitory activity”.
With C/C=C1\NC(=O)[C@H](C)NC(=O)[C@H](C(C)C)NC(=O)[C@H](NC(=O)[C@H](Cc2ccc(O)cc2)NC(=O)[C@@H](CC(C)C)NC(=O)[C@H](Cc2ccccc2)NC(C)=O)[C@@H](C)OC1=O [Compound 8, Nobilamide E] (Ac-F[dL]Y[d(aThr)]VA[Dhb]; ester 4-C) the “inhibitory activity (in words)” value [3] was “inactive”.
In the case of C/C=C1\NC(=O)[C@H](C)NC(=O)[C@H](C(C)C)NC(=O)[C@H](NC(=O)[C@H](Cc2ccccc2)NC(=O)[C@@H](CC(C)C)NC(=O)[C@@H](Cc2ccccc2)NC(C)=O)[C@@H](C)OC1=O [Compound 2, A-3302-A] (Ac-[dF][dL]F[d(aThr)]VA[Dhb]; ester 4-C), the “duration of abolished TRPV1 activity after removal of drug” value [4] is reported as greater than 1 h, the “antagonism of capsaicin in direct competition experiments” value [5] is reported as “antagonize the action of capsaicin on TRPV1” and the “inhibition of three other TRPV1 mutants” value [6] is reported as “in a manner similar to wild type”. The “TRPV1 antagonism in F660A mutant” value [7] was “complete loss of TRPV1 antagonism”, the “inhibitory activity (in words)” value [3] was “exhibited inhibitory activity” and the “TRPV1 antagonism in C578A mutant” value [8] was “complete loss of TRPV1 antagonism”. For the same molecule, the “TRPV1 antagonism in C621A mutant” value [9] was “complete loss of TRPV1 antagonism”.
For C/C=C(\NC(=O)[C@H](C)NC(=O)[C@@H](NC(=O)[C@H](NC(=O)[C@H](Cc1ccccc1)NC(=O)[C@@H](CC(C)C)NC(=O)[C@@H](Cc1ccccc1)NC(=O)CC)[C@@H](C)O)C(C)C)C(=O)O [Compound 5, Nobilamide B] (Propionyl-[dF][dL]F[d(aThr)]VA[Dhb]-OH), the “potency with pre-incubation versus co-application with capsaicin” value ([4]; 375 μM compound, capsaicin 25 μM (Figure 1)) was “greatly increased with pre-incubation”, the “stability of inhibitory activity to washes” value ([4]; 375 μM, 1 h timecourse with washes (Figure 2)) was “stable through four washes taking place over a 60-min period” and the rebound of activity ([4]; after washes, human cells) was “slight rebound of activity was noticed after one hour”. For the same molecule, the “duration of abolished TRPV1 activity after removal of drug” value [4] was greater than 1 h, the “antagonism of capsaicin in direct competition experiments” value [5] was “antagonize the action of capsaicin on TRPV1” and the “inhibition of three other TRPV1 mutants” value [6] was “in a manner similar to wild type”. For the same molecule, the “TRPV1 antagonism in F660A mutant” value [7] was “complete loss of TRPV1 antagonism”, the “inhibitory activity (in words)” value [3] was “exhibited inhibitory activity” and the “TRPV1 antagonism in C578A mutant” value [8] was “complete loss of TRPV1 antagonism”. The “TRPV1 antagonism in C621A mutant” value [9] was “complete loss of TRPV1 antagonism”.
In the case of CC(=O)N[C@@H](Cc1ccccc1)C(=O)N[C@H](CC(C)C)C(=O)N[C@@H](Cc1ccccc1)C(=O)N[C@@H](C(=O)N[C@H](C(=O)N[C@@H](C)C(=O)O)C(C)C)[C@@H](C)O [Compound 6, Nobilamide C] (Ac-F[dL]F[d(aThr)]VA-OH), the “inhibitory activity (in words)” value [3] is reported as “Neither 6 nor 1a exhibited detectable activity”.
